Experimental data reported in publication PMC9304322, “Targeting retinoic acid receptor alpha-corepressor interaction activates chaperone-mediated autophagy and protects against retinal degeneration” (Nature Communications, 2022).
Several values for one entry are separate records, joined by “and”; a condition that tells them apart may be missing. Equal entries are not always repeated.

Experiments:
KFERQ-Dendra mice = assay: CMA activity in tissues of KFERQ-Dendra mice;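 on % cells: percentage of blood CD4+ T cells with more than 3 CMA puncta per cell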; format: in vivo, mouse; set-up: Fig. 3g value / Fig. 3g value, Mean 2: unit not given here; settings: for Fig. 3g value, Mean 2: group mean of the test details, n 6; for Fig. 3g value / % cells: single replicate values; for % cells: Fig. 3d; for fluorescent Dendra+ puncta in liver: KFERQ-Dendra mice, i.p. 30 mg/kg bw daily for 3 days; for number of Dendra+ puncta per cell in retina (Fig. 4f), average / number of Dendra+ puncta per cell in retina (Fig. 4f), individual fields: flat-mounted retinas; for number of Dendra+ puncta per MAP2 + cell (Fig. 4b), individual sections: hippocampus (CA1 region), i.p. 30 mg/kg bw daily for three consecutive days
Procedure: C57BL/6 J mice wild-type (WT) and homozygous for the Pde6 mutation (rd10 mouse model of retinal degeneration) were obtained from The Jackson Laboratory and experiments were performed at the age indicated in each part of the study. C57BL/6 KFERQ-Dendra mice were generated by back-crossing FVB KFERQ-Dendra mice with wild-type C57BL/6 mice for 8 generations. Both male and female animals were used in this study in equally distribution groups. However, results from both sexes were pooled, because of absence of significant differences in any of the parameters analyzed after statistical analysis with a mixed model of two-way ANOVA sex and treatment as independent variables and the corresponding measure as dependent variable. All animals were housed in a barrier-controlled facility (19–23 °C 30–60% relative humidity; 12 h light/dark cycle) with ad libitum access to standard chow pellets (protein 19 gm%/carbohydrate 67 gm%/fat 4 gm%) and water. For animal administration of CA compounds, a formula containing 30% PEG 400 (Sigma, #8.0745), 65% of 5% glucose solution, 5% Tween 80 (Sigma, #P1754) was used to dissolve them. CA compounds were prepared freshly by adding 5% DMSO and sonicating for 1 h. Treatment of KFERQ-Dendra mice with the CA compounds was done at 4 months of age by i.p. daily injection of 30 mg/kg bw or vehicle for three consecutive days and tissues collected 6 h after the last injection. In the case of rd10 mice, animals were daily injected from P18 to P25 with CA77 (40 mg/kg bw). In the case of intravitreal administration, a single intravitreal injection was applied at P18 with CA77 (40 µM) in DMSO/PBS and the contralateral eye was injected with PBS and DMSO at same concentration. At P26, mice were sacrificed and eyes fixed overnight with 4% PFA (Sigma, #P6148) in PBS at 4 °C for immunofluorescence or retinas dissected and immediately frozen for biochemistry. Distribution of animals in the vehicle or treatment group was done randomly. ICR (CD-1) outbred 3 months old male mice from ENVIGO were used for the pharmacokinetic studies (see pharmacokinetic section for housing and handling details). All animal studies and procedures complied with ethical regulations, were performed in accordance with the European Union guidelines and the ARVO Statement for the Use of Animals in Ophthalmic and Vision Research and were approved by the Institutional Animal Care and Use Committee at the Albert Einstein College of Medicine, the CSIC Bioetica Comite and approved by the Comunidad de Madrid, PROEX232/17.
All mice were perfused with PBS. Livers were post-fixed overnight at 4 °C in picric acid fixation buffer (2% formaldehyde, 0.2% picric acid in PBS, pH7.0) and then washed with 70% ethanol, followed by two washes in PBS. Livers were immersed in 30% sucrose and then embedded in OCT for sectioning in a cryostat (Leica CM3050 S). After airdrying for 30 min, sections were stored at −20 °C until use. Brains were post-fixed for 12 h in 4% paraformaldehyde, cryoprotected in PBS containing 20% sucrose before being frozen by immersion in a cold isopentane bath (−50 °C), and stored immediately at −80 °C until sectioning. Brains were also sectioned in a cryostat at −20 °C in coronal 40 μm-thick free-floating sections. Immunostainings were performed after permeabilization of the sections with 0.3% Triton X-100 in PBS for 30 minutes at RT followed by blocking (10% normal goat serum, 2% Triton X-100 in PBS) and subsequent incubation with the primary and appropriate anti-species secondary antibody. Cell nuclei were stained using Hoechst (Life Technologies, 33342) at 1:5000 for 30 s (in retina) or 10 min (in brain sections) prior to mounting. Images were acquired with a Leica confocal TCS-SP8 (Leica Microsystem) using an HCX Plan Apo CS ×63.0 1.40 NA oil objective and the Leica Application Suite X (LAS X). Puncta was quantified using ImageJ Software (NIH)[38] after thresholding. […]

[1] = In vitro solubility by nephelometry; format: physicochemical; settings: in words
Procedure: (§1) In vitro solubility in the following conditions A) HBSS/HEPES 10 mM/BSA 0.1% pH 6 B) HBSS/HEPES 10 mM/BSA 0.1% pH 7.4 C) TRIS/BSA 0.1% PBS (pH 7.4 and at indicated doses were measured by Nephelometry using the NEPHELOstar Galaxy apparatus (BMG Lab Technologies). In vitro stability in human, mouse and rat liver microsomes and permeability using a bidirectional permeability assay with CaCo-2 cells (pH 6.5/7.4) assays were performed with standard methodology and analyzed by LC-MS/MS. at SIMM-SERVIER joint Biopharmacy Laboratory. ADME properties for CA39 and CA77 were predicted by QikProp (Schrödinger, LLC, Releases 2016-2020) software.

[2] = In vitro stability in human liver microsomes; format: in vitro ADME; settings: in words
Procedure: as §1

[3] = i.p. 30 mg/kg bw daily for three days
[4] = i.p. 30 mg/kg bw daily for three days, 30 mg/kg

| Compound | Fig. 3g value, Mean 2 (KFERQ-Dendra mice) | Fig. 3g value (KFERQ-Dendra mice) | % cells (KFERQ-Dendra mice) | fluorescent Dendra+ puncta in liver (KFERQ-Dendra mice) | number of Dendra+ puncta per cell in retina (Fig. 4f), average (KFERQ-Dendra mice; [3]) | number of Dendra+ puncta per cell in retina (Fig. 4f), individual fields (KFERQ-Dendra mice; [4]) | number of Dendra+ puncta per MAP2 + cell (Fig. 4b), individual sections (KFERQ-Dendra mice; 30 mg/kg) | number of Dendra+ puncta in individual TH+ cells (Fig. S8d) (KFERQ-Dendra mice; midbrain substantia nigra, i.p. 30 mg/kg bw daily for three days, 30 mg/kg) | solubility [1] | metabolic stability with human liver microsomes [2] |
| --- | --- | --- | --- | --- | --- | --- | --- | --- | --- | --- |
| Clc1ccc2c(c1)OCC(c1ccc(-c3ccccc3)cc1)=N2 [CA39] | 20 | 16.28 and 30.33 and 23.44 and 14.29 and 16.39 and 19.29 | 21% and 39% and 30% and 21.8% and 22.6% and 12.2% and 9.5% and 24.2% and 12.8% and 21.2% | significant increase in the number of fluorescent Dendra^+ puncta | 1.185 puncta/cell | 1.154 puncta/cell and 0.857 puncta/cell and 0.867 puncta/cell and 0.700 puncta/cell and 1.556 puncta/cell and 1.350 puncta/cell and 1.500 puncta/cell and 0.737 puncta/cell and 1.385 puncta/cell and 0.958 puncta/cell and 0.950 puncta/cell and 2.000 puncta/cell and 1.182 puncta/cell and 1.400 puncta/cell | 20 and 22 and 18 and 25 and 16 and 15 and 12 and 10 | 27 and 32 and 4 and 2 and 55 and 34 and 23 and 3 and 21 and 1 and 48 and 38 and 6 and 39 and 22 and 45 and 12 and 35 | reasonable | high to intermediate |
| CC(=O)Nc1ccc(C2=Nc3ccc(Cl)cc3OC2)cc1 [CA77] | 17.33 | 10 and 12 and 22 and 23 and 19 and 18 | 9% and 28% and 12% and 18% and 22% and 17% and 32% and 26% | significant increase in the number of fluorescent Dendra^+ puncta | 1.396 puncta/cell | 1.250 puncta/cell and 1.040 puncta/cell and 1.583 puncta/cell and 1.063 puncta/cell and 1.100 puncta/cell and 1.667 puncta/cell and 1.375 puncta/cell and 1.846 puncta/cell and 1.000 puncta/cell and 1.750 puncta/cell and 1.684 puncta/cell | 22 and 17 and 15 and 26 and 12 and 18 and 9 and 5 |  | reasonable | high to intermediate |
